From patent US20240398771A1, “TREATMENT OF SCLERODERMA AND RAYNAUD'S SYNDROME” (Aisa Pharma, Inc., priority 2023, published 2024)

What was measured:
participants with SSc-RP [1] = test: Average duration of weekly symptomatic RP attacks (minutes); assay type: in vivo, human; settings: ITT Part A
Source text: (§1) The relevant metrics measured by this tool daily are: • Study medication • SSc-RP symptoms (Reporting an attack including duration of attack) • Severity of the attack considering all symptoms of the attack e.g. tingling, numbness, pain, color changes (VAS 0-10 cm scale) • Participant's location at the time of the attack (inside home/outside home) • Selecting symptoms experienced during the attack (tingling, numbness, pain, color changes, other) • Pain rating during the attack (11-point Likert scale) • The RCS based on how much difficulty participants had with Raynaud's today, how many attacks the participant had, and how long they lasted. Participants will also be asked to consider how much pain, numbness, or other symptoms the Raynaud's caused in fingers (including painful sores), and how much the Raynaud's alone affected the use of hands today (VAS 0-10 cm scale).
The absolute change in average duration of weekly RP attacks from baseline to the end of each dosing period was and will be a secondary outcome variable. The sponsor-developed participant-informed diary was and will be used to record data. Average duration of weekly RP attacks is defined as the total duration of RP attacks divided by total number of RP attacks within the last 7 days of each dosing period. Total duration of RP attacks during the last 7 days of screening period divided by the total number of RP attacks will be used as baseline for the analysis of all periods. The variable will be calculated similar to frequency data as before.

participants with SSc-RP [2] = test: Average daily Raynaud's Condition Score (RCS); assay type: in vivo, human; design: key to Average Daily RCS: Baseline, Mean / Average Daily RCS: Baseline, Median: daily RCS on VAS 0-10 cm scale; settings: Tadalafil 5 mg; ITT Part A
Source text: as §1
The RCS is based on how much difficulty participants had with Raynaud's today, how many attacks the participant had, and how long they lasted. In addition participants were and will be asked to consider how much pain, numbness, or other symptoms the Raynaud's caused in fingers (including painful sores), and how much the Raynaud's along affected the use of hand today (VAS 0-10 cm scale).
The absolute change in average daily RCS from baseline to the end of each dosing period was and will be a secondary outcome variable. The sponsor-developed participant-informed diary has been and will be used to record data. The average daily RCS is defined as the total RCS divided by the number of days with available diary data of each dosing period. Total RCS during screening period divided by the number of days with available data will be used as baseline for the analysis of all periods. If there are multiple daily RCS scores, the latest daily RCS will be used. The variable will be calculated similar to frequency data as before.

[3] = Excluding Outliers, Baseline RCS subgroup 2 (second half of Table B-4, stratum not given), last 7 days of dosing period
[4] = Excluding Outliers, Baseline RCS subgroup 2 (second half of Table B-4, stratum not given), last 7 days of screening period
[5] = Baseline RCS subgroup 2 (Table B-3, stratum not given), last 7 days of dosing period
[6] = Baseline RCS subgroup 2 (Table B-3, stratum not given), last 7 days of screening period

In the case of `CN1CC(=O)N2[C@H](c3ccc4c(c3)OCO4)c3[nH]c4ccccc4c3C[C@@H]2C1=O` [Tadalafil], the “Average Duration of weekly symptomatic RP attacks, Max” value (participants with SSc-RP [1]; [3]) is reported as 6.0, 6.0 minutes, the “Average Duration of weekly symptomatic RP attacks, Mean” value (participants with SSc-RP [1]; [3]) is reported as 6.00 min and the “Average Duration of weekly symptomatic RP attacks, Median” value (participants with SSc-RP [1]; [3]) is reported as 6.00 min. The “Average Duration of weekly symptomatic RP attacks, Min” value (participants with SSc-RP [1]; [3]) was 6.0, 6.0 minutes, the “Average Duration of weekly symptomatic RP attacks, Q1” value (participants with SSc-RP [1]; [3]) was 6.00, 6.00 minutes and the “Average Duration of weekly symptomatic RP attacks, Q3” value (participants with SSc-RP [1]; [3]) was 6.00, 6.00 minutes. The “Average duration of weekly symptomatic RP attacks, Change from Baseline, Max” value (participants with SSc-RP [1]; [3]) was −4.6, −4.6 minutes, the “Average duration of weekly symptomatic RP attacks, Change from Baseline, Mean” value (participants with SSc-RP [1]; [3]) was -4.58 min and the “Average duration of weekly symptomatic RP attacks, Change from Baseline, Min” value (participants with SSc-RP [1]; [3]) was −4.6, −4.6 minutes. The “Average duration of weekly symptomatic RP attacks, Change from Baseline, Q3” value (participants with SSc-RP [1]; [3]) was −4.58, −4.58 minutes, the “Average duration of weekly symptomatic RP attacks, Percent Change from Baseline, Max” value (participants with SSc-RP [1]; [3]) was −43.3, −43.3% and the “Average duration of weekly symptomatic RP attacks, Percent Change from Baseline, Mean” value (participants with SSc-RP [1]; [3]) was −43.31%. For the same molecule, the “Average duration of weekly symptomatic RP attacks, Percent Change from Baseline, Min” value (participants with SSc-RP [1]; [3]) was −43.3, −43.3%, the “Average duration of weekly symptomatic RP attacks, Percent Change from Baseline, Q3” value (participants with SSc-RP [1]; [3]) was −43.31, −43.31% and the “Average duration of weekly symptomatic RP attacks, Baseline, Max” value (participants with SSc-RP [1]; [4]) was 10.6, 10.6 minutes. For the same molecule, the “Average duration of weekly symptomatic RP attacks, Baseline, Mean” value (participants with SSc-RP [1]; [4]) was 10.58 min, the “Average duration of weekly symptomatic RP attacks, Baseline, Median” value (participants with SSc-RP [1]; [4]) was 10.58 min and the “Average duration of weekly symptomatic RP attacks, Baseline, Min” value (participants with SSc-RP [1]; [4]) was 10.6, 10.6 minutes. The “Average duration of weekly symptomatic RP attacks, Baseline, Q1” value (participants with SSc-RP [1]; [4]) was 10.58, 10.58 minutes, the “Average duration of weekly symptomatic RP attacks, Baseline, Q3” value (participants with SSc-RP [1]; [4]) was 10.58, 10.58 minutes and the “Average Duration of weekly symptomatic RP attacks” value (participants with SSc-RP [1]; [5]) was 6.0 min. For the same molecule, the “Average Duration of weekly symptomatic RP attacks, Max” value (participants with SSc-RP [1]; [5]) was 818.6 min, the “Average Duration of weekly symptomatic RP attacks, Q1” value (participants with SSc-RP [1]; [5]) was 6.00 min and the “Average Duration of weekly symptomatic RP attacks, Q3” value (participants with SSc-RP [1]; [5]) was 818.57 min. For the same molecule, the “Average duration of weekly symptomatic RP attacks, Change from Baseline” value (participants with SSc-RP [1]; [5]) was -4.6 min, the “Average duration of weekly symptomatic RP attacks, Change from Baseline, Max” value (participants with SSc-RP [1]; [5]) was 286.1 min and the “Average duration of weekly symptomatic RP attacks, Change from Baseline, Q1” value (participants with SSc-RP [1]; [5]) was -4.58 min. For the same molecule, the “Average duration of weekly symptomatic RP attacks, Change from Baseline, Q3” value (participants with SSc-RP [1]; [5]) was 286.07 min, the “Average duration of weekly symptomatic RP attacks, Percent Change from Baseline, Max” value (participants with SSc-RP [1]; [5]) was 53.7% and the “Average duration of weekly symptomatic RP attacks, Percent Change from Baseline, Min” value (participants with SSc-RP [1]; [5]) was −43.3%. For the same molecule, the “Average duration of weekly symptomatic RP attacks, Percent Change from Baseline, Q1” value (participants with SSc-RP [1]; [5]) was −43.31%, the “Average duration of weekly symptomatic RP attacks, Percent Change from Baseline, Q3” value (participants with SSc-RP [1]; [5]) was 53.72% and the “Average duration of weekly symptomatic RP attacks, Baseline” value (participants with SSc-RP [1]; [6]) was 10.6 min. For the same molecule, the “Average duration of weekly symptomatic RP attacks, Baseline, Max” value (participants with SSc-RP [1]; [6]) was 532.5 min, the “Average duration of weekly symptomatic RP attacks, Baseline, Mean” value (participants with SSc-RP [1]; [6]) was 271.54 min and the “Average duration of weekly symptomatic RP attacks, Baseline, Median” value (participants with SSc-RP [1]; [6]) was 271.54 min. The “Average duration of weekly symptomatic RP attacks, Baseline, Q1” value (participants with SSc-RP [1]; [6]) was 10.58 min, the “Average duration of weekly symptomatic RP attacks, Baseline, Q3” value (participants with SSc-RP [1]; [6]) was 532.50 min and the “Average Daily RCS: Baseline, Mean” value (participants with SSc-RP [2]) was 7.72. The “Average Daily RCS: Baseline, Median” value (participants with SSc-RP [2]) was 7.72.
